Reference: patent US12568968B2, “Herbicide combinations comprising glufosinate and epyrifencacil” (BASF SE, priority 2020, dated 2026)

Key:
Assay in all cases: Greenhouse post-emergence weed control, percent injury vs untreated control
Format in all cases: in vivo
[1] = test system: Abutilon theophrasti (ABUTH); conditions: 480 h, 20 DAT
Hordeum vulgare (HORVS) = conditions: 480 h, 20 DAT
Avena fatua (AVEFA) = conditions: 480 h, 20 DAT, 1% MSO
[2] = test system: Amaranthus Palmeri (AMAPA); conditions: 480 h, 20 DAT
[3] = test system: Amaranthus tuberculatus (AMATU); conditions: 480 h, 20 DAT
[4] = 200 g ai/ha, read-out: Solo Glufosinate % activity
[5] = 50 g ai/ha, read-out: Solo Glufosinate % activity
[6] = 0.9 g ai/ha, read-out: Solo epyrifenacil % activity

CP(=O)(O)CCC(N)C(=O)O (racemic) [Glufosinate, (2RS)-2-amino-4-[hydroxy(methyl)phosphinoyl]butyric acid]
inhibition at 200 g/ha [1, 4]: 10% | inhibition at 200 g/ha (Hordeum vulgare (HORVS); [4]): 25% | inhibition at 50 g/ha (Avena fatua (AVEFA); [5]): 10% | inhibition at 200 g/ha ([2]; 200 g ai/ha, Table 5, read-out: Solo Glufosinate % activity): 75% | inhibition at 50 g/ha [3, 5]: 10% | inhibition at 100 g/ha ([3]; 100 g ai/ha, read-out: Solo Glufosinate % activity): 10% | inhibition at 200 g/ha [3, 4]: 70%

CCOC(=O)COc1ncccc1Oc1cc(-n2c(=O)cc(C(F)(F)F)n(C)c2=O)c(F)cc1Cl [epyrifenacil, Acetic acid, 2-[[3-[2-chloro-5-[3,6-dihydro-3-methyl-2,6-dioxo-4-(trifluoromethyl)-1(2H)-pyrimidinyl]-4-fluorophenoxy]-2-pyridinyl]oxy]-, ethyl ester]
inhibition at 0.1 g/ha ([1]; 0.1 g ai/ha, read-out: Solo epyrifenacil % activity): 25% | inhibition at 0.9 g/ha (Hordeum vulgare (HORVS); [6]): 10% | inhibition at 0.9 g/ha (Avena fatua (AVEFA); [6]): 15% | inhibition at 0.3 g/ha ([2]; 0.3 g ai/ha, read-out: Solo epyrifenacil % activity): 15% | inhibition at 0.9 g/ha [2, 6]: 20% | inhibition at 0.9 g/ha ([3]; 0.9 g ai/ha, Table 2, read-out: Solo epyrifenacil % activity): 75%
